# Reference: BindingDB's records for doi:10.7270/Q2H993NJ (University of Pittsburgh, 2010)
# pIC50: −log10 of the molar value. Where “and” joins values, the source holds several entries; their conditions need not be identical. Equal values may be shown once.
# Molecular target: Furin (Homo sapiens, UniProt P09958)
# Experiment: human furin inhibition, concentration series – biochemical, fluorescence intensity, IC50, dose response (AID 463182)
# Sequence of Furin (P09958 whole entry): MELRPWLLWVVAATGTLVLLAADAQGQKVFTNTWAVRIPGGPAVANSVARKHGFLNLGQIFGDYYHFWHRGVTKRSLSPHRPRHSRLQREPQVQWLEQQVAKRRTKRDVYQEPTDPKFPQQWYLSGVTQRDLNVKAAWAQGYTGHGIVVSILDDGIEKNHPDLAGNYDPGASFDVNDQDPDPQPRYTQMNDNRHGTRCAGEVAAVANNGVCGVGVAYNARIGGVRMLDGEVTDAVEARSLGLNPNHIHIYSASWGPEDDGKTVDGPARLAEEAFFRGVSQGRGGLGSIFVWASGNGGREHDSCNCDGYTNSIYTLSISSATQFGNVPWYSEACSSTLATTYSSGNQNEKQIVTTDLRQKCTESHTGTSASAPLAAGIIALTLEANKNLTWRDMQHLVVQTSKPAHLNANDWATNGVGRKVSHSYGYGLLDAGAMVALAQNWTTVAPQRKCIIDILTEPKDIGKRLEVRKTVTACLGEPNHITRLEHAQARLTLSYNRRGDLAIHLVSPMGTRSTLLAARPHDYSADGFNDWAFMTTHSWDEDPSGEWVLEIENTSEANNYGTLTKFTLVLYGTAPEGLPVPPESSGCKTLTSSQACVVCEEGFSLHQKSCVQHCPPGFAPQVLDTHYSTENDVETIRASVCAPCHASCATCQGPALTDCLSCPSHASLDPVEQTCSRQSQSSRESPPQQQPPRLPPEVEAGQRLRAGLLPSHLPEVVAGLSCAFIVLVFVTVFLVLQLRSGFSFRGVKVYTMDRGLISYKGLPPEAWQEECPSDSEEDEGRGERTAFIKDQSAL
row,SMILES,pIC50
1,CC1(C)CC(=O)C(=CNc2cccnc2)C(=O)C1,< 4.30
2,CCCOP(=O)(c1ccc(N(C)C)cc1)C(Nc1ccccc1)c1ccc(N(C)C)cc1 (centres undefined),< 4.30
3,Cc1cccc(NC=C2C(=O)CC(C)(C)CC2=O)n1,< 4.30
4,"CCN1CCS/C1=C\C=C\C1=[N+](CC)CCS1 [3-ethyl-2-[(E,3E)-3-(3-ethylthiazolidin-2-ylidene)prop-1-enyl]-2-thiazolin-3-ium;iodide]",4.47 and 4.50
5,"CC1(C)CC(=O)C(=CNn2cnc3ccccc3c2=O)C(=O)C1 [5,5-Dimethyl-2-[(4-oxo-4H-quinazolin-3-ylamino)-methylene]-cyclohexane-1,3-dione]",< 4.30
6,"Cc1cccc(-n2c(O)c(C=CC=Nc3ccccc3)c(=O)[nH]c2=O)c1 [(5Z)-1-(3-methylphenyl)-5-[(E)-3-phenylazanylprop-2-enylidene]-1,3-diazinane-2,4,6-trione]",< 4.30
7,Cc1ccccc1-n1c(O)c(C=Nc2ccc(N(C)C)cc2)c(=O)[nH]c1=O [SMR000102641],< 4.30
8,Cc1cccc(C=C2SC(NN=C3CC4CCC3(C)C4(C)C)=NC2=O)c1 (centres undefined) [SMR000159419],< 4.30
9,CSc1nc(N)c(N=Nc2ccc([As](=O)(O)O)cc2)c(O)n1 [[4-[(2Z)-2-(4-azanyl-2-methylsulfanyl-6-oxidanylidene-pyrimidin-5-ylidene)hydrazinyl]phenyl]arsonic acid],< 4.30
